Read-outs that look alike come from different tables or passages of the source.
How the values were obtained:
Assay type in all cases: cell-based
PC-3M = assay: MTT cell proliferation assay, PC-3M; conditions: 72 hours, mean±SD, n=3
Experimental: [The source words this procedure for another cell line and reports this cell line under the same test.] (§1) Primary bovine retinal capillary endothelial cells (BRCECs), pericytes and human prostate adenocarcinoma cells (PC-3), and human breast cancer cells (MCF-7 and MDA-MB-231) were treated with the CLT010 compounds at various concentrations for 72 hours.

[1] = tested on: VEGF in human retinal capillary endothelial cells (HRCECs); assay: CoCl2-induced VEGF over-expression, ELISA of conditioned medium; conditions: 24 h, CoCl2 200 μM; for reduction of VEGF levels: n=3
Experimental: To address if new antioxidants block VEGF over-expression induced by hypoxia, we measured levels of VEGF in human retinal capillary endothelial cells (HRCECs) after the exposure of CLT010-01, CLT010-07, and CLT010-12. The effect of new oxidants was compared with curcumin. HRCECs were seeded at a density of 4×10^4 cells/well in 400 μl of growth medium in triplicate in gelatin-coated 24-well plates, 24 h prior to the experiments. VEGF over-expression was induced by 200 μM of cobalt chloride (CoCl2). Cells were incubated with the medium in the presence or absence of CoCl2 and CoCl2 plus curcumin, CLT010-01, CLT010-07 and CLT010-12 at the concentrations of 0.5, 2, and 4 μM. The conditioned medium was collected 24 h after treatment. VEGF concentrations were measured by ELISA specific for VEGF using a commercial kit (R & D Systems, Minneapolis, Minn.). CoCl2 induced VEGF over-expression by 53.1±13.9%, compared to the untreated cells. The novel antioxidants reduced the expression of VEGF (FIGS. 3A and 3B). CLT010-01 reduced the VEGF levels by 48.8±7.8% at 4 μM (p<0.001, n=3). CLT010-07 inhibited the VEGF levels by 45.2±8.5 (p<0.01, n=3) and 57.2±4.4% (p<0.001, n=3) at 2 and 4 μM, respectively. CLT010-12 suppressed the VEGF expression by 24.2±10 (p<0.01, n=3), 58.2±7.2 (p<0.001, n=3), and 67.3±4.4% (p<0.001, n=3) at 0.5, 2 and 4 μM (p<0.001, n=3), respectively (FIG. 3B).
According to embodiments of experimental data shown in FIG. 3, HRCECs were cultured in the presence or absence of CoCl2, CoCl2 plus curcumin, CLT010-01, CLT010-07, and CLT010-12 at concentrations as indicated. The conditioned medium was collected after 24 h treatment. VEGF levels were measured by ELISA. In FIG. 3A, VEGF concentrations in the medium from the untreated cells, CoCl2-treated cells, and CoCl2 plus compound-treated cells are shown. In FIG. 3B, the percentage of VEGF concentrations in the medium from CoCl2 plus compound-treated cells compared with that of the medium from CoCl2-treated cells is shown. CoCl2 plus compounds plus vs. CoCl2: *p<0.01, p<0.001, n=3.

[2] = tested on: TNF-α-stimulated generation of reactive oxygen species in human retinal pigment epithelial cells (ARPE-19); assay: TNF-α-stimulated intracellular ROS generation (CM-H2DCFDA fluorescence); conditions: for effect on ROS production: same concentration range (2-8 μM), same conditions; for reduction of ROS: 24 h pretreatment, TNF-α 20 ng/ml, ARPE-19, n=6
Experimental: The intracellular generation of ROS was stimulated by TNF-α. Human retinal pigment epithelial cells (ARPE-19) were cultured on 96-well plates and pretreated with or without aminoguanidine, curcumin, and the CLT010 compounds for 24 h. TNF-α was added into culture medium at the concentration of 20 ng/ml and incubated with the cells for 1 h at 37° C. To measure ROS generation, 5-(and -6)-chloromethyl-2′,7′-dichlorodihydrofluorescein diacetate (CM-H2DCFDA) was added to the cells and incubated for 45 min. The relative fluorescence intensity representing the intracellular generation of ROS was measured using FLUOstar Omega at an emission wavelength of 535 nm, after excitation at 485 nm. TNF-α stimulated the intracellular generation of ROS by 36.9±8.4%, compounded with the untreated cells. Novel antioxidants reduced the intracellular ROS. At concentration of 8 μM, CLT010-01 reduced ROS by 40.5±6.3% (p<0.01, n=6), and CLT010-07 reduced ROS by 50.6±6.8% (p<0.01, n=6).
According to embodiments of experimental data shown in FIG. 2, ARPE-19 cells were pretreated with aminoguanidine, curcumin, CLT010-01, CLT010-07, and CLT010-12 at indicated concentrations for 24 h prior to the addition of TNF-α (20 ng/ml). The cells were incubated with CM-H2DCFDA for 45 min. Relative fluorescent intensity in the untreated cells, TNF-α-stimulated cells and compound plus TNF-α-treated cells. In FIG. 2B, the percentage of relative fluorescent intensity in each compound plus TNF-α-treated cells compared with that of TNF-α-stimulated cells is shown as the compound plus TNF-α vs TNF-α alone: *p<0.05, p<0.01, n=6.

cancer cells = assay: MTT cell proliferation assay, cancer cells (summary over lines); conditions: Homo sapiens, 72 hours, range across cancer cell lines, read-out: IC50, growth of cancer cells (range over cell lines)
Experimental: as §1

Du145 = assay: MTT cell proliferation assay, Du145; conditions: mean±SD, n=3
Experimental: [The source words this procedure for another cell line and reports this cell line under the same test.] as §1

[3] = tested on: human breast cancer cells (MDA-MB-231); assay: MTT cell proliferation assay, MDA-MB-231; conditions: mean±SD, n=3
Experimental: as §1

[4] = tested on: human breast cancer cells (MCF-7); assay: MTT cell proliferation assay, MCF-7; conditions: mean±SD, n=3
Experimental: as §1

[5] = tested on: human prostate adenocarcinoma cells (PC-3); assay: MTT cell proliferation assay, PC-3; conditions: 72 hours, mean±SD, n=3
Experimental: as §1

[6] = tested on: Primary bovine retinal capillary endothelial cells (BRCECs); assay: MTT cell proliferation assay, BRCECs; conditions: 72 hours, mean±SD, n=3, read-out: IC50 (μM) BRCEC
Experimental: as §1

pericytes = assay: MTT cell proliferation assay, pericytes; conditions: 72 hours
Experimental: as §1

Row | Compound | effect on ROS production [2] | IC50 ([6]; Bos taurus, Endothelial cell) [µM] | IC50 (PC-3M) [µM] | reduction of VEGF levels ([1]; 4 μM) [%] | inhibition of the growth of pericytes (pericytes) | reduction of ROS ([2]; 8 μM) [%] | IC50 (Du145; 72 hours) [µM] | IC50 ([3]; 72 hours) [µM] | IC50 ([4]; 72 hours) [µM] | IC50 [5] [µM] | reduction of VEGF levels ([1]; 2 μM) [%] | IC50 [6] [µM] | also measured
1 | COc1cc(/C=C/C(=O)CC(=O)/C=C/c2ccc(O)c(OC)c2)ccc1O [Curcumin] | did not significantly affect | 13.8 |  |  |  |  |  |  |  |  |  |  | IC50 (PC-3M; Homo sapiens, PC-3M): 10.7 ± 1.3 µM; inhibition of the release of VEGF from cells into medium ([1]; 0.5, 2, and 4 μM, p>0.05, n=3): did not significantly inhibit; IC50 (cancer cells): 9.5 to 25.6 µM; IC50 (Du145; Homo sapiens, DU-145, 72 hours): 20.7 ± 3.5 µM; IC50 ([3]; Homo sapiens, MDA-MB-231, 72 hours): 25.6 ± 4.8 µM; IC50 ([4]; Homo sapiens, MCF7, 72 hours): 21.5 ± 4.7 µM; IC50 ([5]; Homo sapiens): 9.5 ± 1.6 µM
2 | COc1cc(/C=C/C(=O)CC(=O)/C=C/c2ccc(OS(N)(=O)=O)c(OC)c2)ccc1OS(N)(=O)=O [CLT010-01] |  |  | 8.5 ± 0.5 | 48.8±7.8 | did not significantly inhibit | 40.5±6.3 | 25.9 ± 0.3 | 3.1 ± 1.3 | 5.5 ± 1.2 | 15.8 ± 1.6 |  |  | 
3 | COc1cc(/C=C/C(=O)/C=C/c2cc(OC)c(OS(N)(=O)=O)c(OC)c2)cc(OC)c1OS(N)(=O)=O [CLT010-12] |  |  | 4.2 ± 0.1 | 67.3±4.4 | did not significantly inhibit | 55.1±3.9 | 6.3 ± 0.2 | 0.6 ± 0.1 | 1.5 ± 0.1 | 1.9 ± 0.04 | 58.2±7.2 | 3.6 ± 0.2 | reduction of VEGF levels ([1]; 0.5 μM): 24.2±10%; reduction of ROS ([2]; 2 μM): 15.3±2.9%; reduction of ROS ([2]; 4 μM): 32.9±5.9%
4 | N=C(N)NN [Aminoguanidine, reference compound] | did not significantly affect | > 32 |  |  |  |  |  |  |  |  |  |  | 
5 | COc1cc(/C=C/c2cc(/C=C/c3ccc(OS(N)(=O)=O)c(OC)c3)[nH]n2)ccc1OS(N)(=O)=O [CLT010-07] |  |  | 6.7 ± 0.7 | 57.2±4.4 | did not significantly inhibit | 50.6±6.8 | 5.3 ± 2.4 | 6.2 ± 1.6 | 6.5 ± 0.1 | 1.8 ± 0.3 | 45.2±8.5 | 3.9 ± 0.1 | 
